This note sets out measurements from US12215106B2, “Pharmaceutical compounds and therapeutic methods” (RUTGERS, THE STATE UNIVERSITY OF NEW JERSEY, priority 2018, dated 2025).

One data set deals with mice plasma. Put plainly: in vitro. The format is in vitro ADME. Particulars: mouse, plasma, 4 h, 5 μM. On the procedure:
(§1) The objective of this study was to evaluate protein binding test compounds in mice plasma. This was accomplished by spiking the test compounds at a concentration of 5 μM into mice plasma and dialyzing against buffer until equilibrium is achieved (4 hours). Analyte area ratios of the test compounds in plasma and buffer were determined to calculate unbound and bound percentages of compound to the plasma proteins.
(§2) Phosphate buffered saline pack (0.1 M sodium phosphate and 0.15 M sodium chloride, pH 7.2) was dissolved in 500 mL of deionized water and pH was adjusted to 7.4 with 0.5 N NaOH.
(§3) 1 mM stock solutions were prepared in DMSO and diluted 200-folds in mice plasma to prepare a concentration of 5 μM. The final DMSO concentration in plasma was 0.5%.
(§4) Rapid equilibrium dialysis was performed with a rapid equilibrium dialysis (RED) device containing dialysis membrane with a molecular weight cut-off of 8,000 Daltons. Each dialysis insert contains two chambers. The red chamber is for plasma while the white chamber is for buffer.
(§5) A 200 μL aliquot of warfarin and test compound at 5 (triplicates) were separately added to the plasma chamber and 350 μL of phosphate buffer saline (pH 7.4) was added to the buffer chamber of the inserts. After sealing the RED device with an adhesive film, dialysis was performed in incubator at 37° C. with shaking at 100 RPM for 4 hours.
(§6) A 50 μL aliquot of warfarin and test compounds were added to four 0.5 mL microfuse tubes. Two aliquots were frozen immediately (0 minute sample). The other two aliquots were incubated at 37° C. for 4 hours along with the RED device.
(§7) Following dialysis, an aliquot of 50 μL was removed from each well (both plasma and buffer side) and diluted with equal volume of opposite matrix (dialyzed with the other matrix) to nullify the matrix effect. Similarly, 50 μL of buffer was added to recovery and stability samples. An aliquot of 100 μL was submitted for LCMS/MS analysis.
(§8) A 25 μL aliquot of warfarin and test compounds were crashed with 100 μL of acetonitrile containing internal standard (glipizide) and vortexed for 5 minutes. The samples were centrifuged at 4000 RPM at 4° C. for 10 min and 100 μL of supernatant was submitted for LC-MS/MS analysis. Samples were monitored for parent compound in MRM mode using LC-MS/MS.
(§9) The peak area ratios (analyte versus internal standard) obtained were used to determine the fraction of compound bound to plasma proteins.

The nature of a further data set: in vitro. The format is in vitro ADME, mice. To be noted: mouse; for recovery at 4 h, 5 µM: pH 7.4; for fraction unbound at 4 h, 5 μM: plasma. On the procedure:
as §1, §2, §3, §4, §5, §6, §7, §8, §9

Structures can show the parent of a compound that is named as a salt.

On to `COc1c(F)cc(Nc2nc(-c3c(C)nc4ccccn34)cs2)cc1F` [Compound 14, hydrochloride], for which, in the data set with mice plasma, the “% compound remaining at 4 hrs” value came out at 76%. Besides, the recovery at 4 h, 5 µM in the data set “in vitro” came out at 124%. Also, the fraction unbound (in general, the share of the substance not bound to proteins or other matrix) at 4 h, 5 μM was 0.003 in the data set “in vitro” (pH 7.4, % Bound Mean ± SD); 0.002 in the data set “in vitro” (pH 7.4, % Bound R1); 0.003 in the data set “in vitro” (pH 7.4, % Bound R2); 0.002 in “in vitro” (pH 7.4, % Bound R3); 0.24 in “in vitro” (pH 7.4, PPB at 4 h).
Take `[2H]C([2H])([2H])Oc1ccc(Nc2nc(-c3c(C)nc4ccccn34)cs2)cc1` [Compound 15, N-(4-(methoxy-d3)phenyl)-4-(2-methylimidazo[1,2-c]pyridin-3-yl)thiazol-2-amine hydrochloride]: the “% compound remaining at 4 hrs” value with mice plasma amounted to 90%. The recovery at 4 h, 5 µM in “in vitro” (Plasma) stood at 114%. Further, the fraction unbound at 4 h, 5 μM is 0.001 in “in vitro” (pH 7.4, % Bound Mean ± SD); 0.001 in “in vitro” (pH 7.4, % Bound R1); 0.001 in “in vitro” (pH 7.4, % Bound R2); 0.001 in the data set “in vitro” (pH 7.4, % Bound R3); 0.1 in “in vitro” (pH 7.4, PPB at 4 h).
With `Cc1nc2ccccn2c1-c1csc(Nc2ccc3c(c2)OC(F)(F)O3)n1` [Compound 16, N-(2,2-difluorobenzo[d][1,3]dioxol-5-yl)-4-(2-methylimidazo[1,2-a]pyridin-3-yl)thiazol-2-amine hydrochloride], in the data set on mice plasma, the “% compound remaining at 4 hrs” value amounted to 76%. In the data set “in vitro” (Plasma), this compound yielded a recovery at 4 h, 5 µM of 117%. The fraction unbound at 4 h, 5 μM was 0.01 in the data set “in vitro” (pH 7.4, % Bound Mean ± SD); 0.01 in “in vitro” (pH 7.4, % Bound R1); 0.01 in the data set “in vitro” (pH 7.4, % Bound R2); 0.011 in the data set “in vitro” (pH 7.4, % Bound R3); 0.24 in “in vitro” (pH 7.4, PPB at 4 h).
As to `[2H]C1([2H])Oc2ccc(Nc3nc(-c4c(C)nc5ccccn45)cs3)cc2O1` [Compound 17, N-(benzo[d][1,3]dioxol-5-yl-2,2-d2)-4-(2-methylimidazo[1,2-c]pyridin-3-yl)thiazol-2-amine hydrochloride], the “% compound remaining at 4 hrs” value in the data set on mice plasma is reported as 75%. Further, the recovery at 4 h, 5 µM in “in vitro” was determined as 124%. For the same compound, the fraction unbound at 4 h, 5 μM was 0.006 in the data set “in vitro” (pH 7.4, % Bound Mean ± SD); 0.008 in “in vitro” (pH 7.4, % Bound R1); 0.004 in “in vitro” (pH 7.4, % Bound R2); 0.005 in the data set “in vitro” (pH 7.4, % Bound R3); 0.25 in “in vitro” (pH 7.4, PPB at 4 h).
